Results taken from ChEMBL document CHEMBL1128134, “Characterization of a continuous fluorogenic assay for calpain I. Kinetic evaluation of peptide aldehydes, halomethyl ketones and (acyloxy)methyl ketones as inhibitors of the enzyme” (Bioorg Med Chem Lett, 1995).
Square brackets hold non-standard residues; d marks the D form. Peptide text beside a SMILES is read from it. * marks the point of attachment. ξ: configuration not given here. Cbz = O=C(OCc1ccccc1)*; ξL = CC(C)CC(N)C(=O)O; CH2Cl = ClC*

Tests used:
[1] = molecular target: Calpain 1 (Homo sapiens) (UniProt P04632+P07384); assay: Apparent second order rate constant for inhibition of calpain-1 by fluorogenic assay.; format: protein-complex assay
[2] = molecular target: Cathepsin B (Homo sapiens) (UniProt P07858); assay: Apparent second order rate constant for inhibition of cathepsin B by fluorogenic assay.
[3] = molecular target: Procathepsin L (Homo sapiens) (UniProt P07711); assay: Inhibition of cathepsin L (fluorogenic assay), apparent second order rate constant
Procathepsin L (Homo sapiens), sequence (P07711 114-333 limits assumed): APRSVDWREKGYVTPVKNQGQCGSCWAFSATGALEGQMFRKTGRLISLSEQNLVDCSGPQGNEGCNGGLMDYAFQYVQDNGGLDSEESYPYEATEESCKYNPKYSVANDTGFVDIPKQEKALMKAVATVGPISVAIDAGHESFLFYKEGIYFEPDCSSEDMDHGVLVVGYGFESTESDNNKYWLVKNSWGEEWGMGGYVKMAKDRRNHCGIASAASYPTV

Row | SMILES | k obs / 1 [1] [M⁻¹ s⁻¹] | k obs / 1 [2] [M⁻¹ s⁻¹] | k obs / 1 [3] [M⁻¹ s⁻¹]
1 | CC(C)CC(NC(=O)OCc1ccccc1)C(=O)NCC(=O)COC(=O)c1c(Cl)ccc(OCCN2CCOCC2)c1Cl (stereo not drawn) | 6000 |  | 
2 | CC(C)CC(NC(=O)OCc1ccccc1)C(=O)NC(Cc1ccc(O)cc1)C(=O)COC(=O)c1c(Cl)ccc(S(=O)(=O)CCN2CCOCC2)c1Cl (stereo not drawn) | 54000 | 2600 | 50000
3 | CC(C)C[C@H](NC(=O)CNC(=O)OCc1ccccc1)C(=O)N[C@@H](Cc1ccccc1)C(=O)CCl (Cbz-Gly-Leu-Phe-CH2Cl) | 3300 | 2700 | 
4 | CC(C)CC(NC(=O)OCc1ccccc1)C(=O)NC(Cc1ccccc1)C(=O)CCl (stereo not drawn) (Cbz-Leu-Phe-CH2Cl; configuration not given here) | 5500 | 2500 | 
5 | CC(C)C(NC(=O)OCc1ccccc1)C(=O)NCC(=O)COC(=O)c1c(Cl)ccc(S(=O)(=O)NCC(=O)OCc2ccccc2)c1Cl (stereo not drawn) | 12000 | 600000 | 120000
6 | CC(C)CC(NC(=O)OCc1ccccc1)C(=O)NC(C)C(=O)CCl (stereo not drawn) | 6000 | 43000 | 
7 | CC(C)CC(NC(=O)OCc1ccccc1)C(=O)NCC(=O)COC(=O)c1c(Cl)ccc(S(=O)(=O)N2CCOCC2)c1Cl (stereo not drawn) | 23000 | 260000 | 160000
8 | Cc1cccc(C)c1C(=O)OCC(=O)C(Cc1ccccc1)NC(=O)C(NC(=O)OCc1ccccc1)C(C)C (stereo not drawn) | 700 |  | 
9 | CC(C)C(NC(=O)OCc1ccccc1)C(=O)NC(Cc1ccccc1)C(=O)COC(=O)c1c(Cl)cccc1Cl (stereo not drawn) | 11000 |  | 
10 | CC(C)C(NC(=O)OCc1ccccc1)C(=O)NC(Cc1ccccc1)C(=O)COC(=O)c1c(Cl)ccc(S(=O)(=O)CCN2CCOCC2)c1Cl (stereo not drawn) | 20000 | 5500 | 63000
11 | CC(C)CC(NC(=O)OCc1ccccc1)C(=O)NC(C)C(=O)COC(=O)c1c(Cl)ccc(OCCN2CCOCC2)c1Cl (stereo not drawn) | 6000 | 58000 | 
12 | O=C(CNC(=O)C(Cc1ccccc1)NC(=O)OCc1ccccc1)COC(=O)c1c(Cl)cccc1Cl (stereo not drawn) | < 500 |  | 
13 | CC(C)CC(NC(=O)OCc1ccccc1)C(=O)NCC(=O)CCl (stereo not drawn) (Cbz-[ξL]-Gly-CH2Cl) | 31000 | 170000 | 500000
14 | CC(=O)Nc1cccc(Cl)c1C(=O)OCC(=O)CNC(=O)C(CC(C)C)NC(=O)OCc1ccccc1 (stereo not drawn) | 600 |  | 
15 | NC(=O)CC(NC(=O)OCc1ccccc1)C(=O)NC(Cc1ccccc1)C(=O)CCl (stereo not drawn) (Cbz-Asn-Phe-CH2Cl; configuration not given here) | 600 | 3000 | 
16 | CC(=O)Nc1cccc(Cl)c1C(=O)OCC(=O)C(C)NC(=O)C(CC(C)C)NC(=O)OCc1ccccc1 (stereo not drawn) | 500 |  | 

Row | SMILES | k obs / 1 [1] [M⁻¹ s⁻¹] | k obs / 1 [2] [M⁻¹ s⁻¹] | k obs / 1 [3] [M⁻¹ s⁻¹]
17 | CC(NC(=O)C(Cc1ccccc1)NC(=O)OCc1ccccc1)C(=O)CCl (stereo not drawn) | < 500 | 220000 | 
18 | CC(C)C(NC(=O)OCc1ccccc1)C(=O)NCC(=O)COC(=O)c1c(Cl)cccc1Cl (stereo not drawn) | 800 |  | 
19 | CC(NC(=O)C(Cc1ccccc1)NC(=O)OCc1ccccc1)C(=O)COC(=O)c1c(Cl)cccc1Cl (stereo not drawn) | < 500 | 360000 | 104000
20 | O=C(CNC(=O)OCc1ccccc1)NC(Cc1ccccc1)C(=O)COC(=O)c1c(Cl)ccc(S(=O)(=O)NCC(=O)OCc2ccccc2)c1Cl (stereo not drawn) | 900 |  | 
21 | O=C(N[C@@H](Cc1ccccc1)C(=O)N[C@@H](Cc1ccccc1)C(=O)CCl)OCc1ccccc1 (Cbz-Phe-Phe-CH2Cl) | < 500 |  | 
22 | CC(C)CC(NC(=O)OCc1ccccc1)C(=O)NC(Cc1ccccc1)C(=O)COC(=O)c1c(Cl)ccc(S(=O)(=O)N2CCOCC2)c1Cl (stereo not drawn) | 17000 |  | 
23 | CC(NC(=O)C(Cc1ccccc1)NC(=O)OCc1ccccc1)C(=O)COC(=O)c1c(Cl)ccc(OCCN2CCOCC2)c1Cl (stereo not drawn) | < 500 | 150000 | 180000
24 | CC(C)C[C@H](NC(=O)OCc1ccccc1)C(=O)N[C@@H](CC(C)C)C(=O)N[C@@H](Cc1ccccc1)C(=O)CCl (Cbz-Leu-Leu-Phe-CH2Cl) | 9500 | 30000 | 
25 | CC(NC(=O)OCc1ccccc1)C(=O)NCC(=O)COC(=O)c1c(Cl)cccc1Cl (stereo not drawn) | < 500 |  | 
26 | CC(C)CC(NC(=O)OCc1ccccc1)C(=O)NC(Cc1ccccc1)C(=O)COC(=O)c1c(Cl)ccc(S(=O)(=O)CCN2CCOCC2)c1Cl (stereo not drawn) | 30000 | 80 | 38000
27 | O=C(CNC(=O)OCc1ccccc1)NC(Cc1ccccc1)C(=O)COC(=O)c1c(Cl)cccc1Cl (stereo not drawn) | 700 |  | 
28 | COC(=O)N[C@H](C)C(=O)NC(CC(C)C)C(=O)NC(Cc1ccccc1)C(=O)COC(=O)c1c(Cl)ccc(OCCN2CCOCC2)c1Cl (stereo partly drawn) | 43000 | 4700 | 90000
29 | CC(C)CC(NC(=O)OCc1ccccc1)C(=O)NCC(=O)COC(=O)c1c(Cl)cccc1Cl (stereo not drawn) | 6000 |  | 
30 | CC(C)CC(NC(=O)OCc1ccccc1)C(=O)NC(C)C(=O)COC(=O)c1c(Cl)ccc(S(=O)(=O)N2CCOCC2)c1Cl (stereo not drawn) | 14000 |  | 
31 | CC(C)CC(NC(=O)[C@@H](C)NC(=O)OCc1ccccc1)C(=O)NCC(=O)COC(=O)c1c(Cl)ccc(OCCN2CCOCC2)c1Cl (stereo partly drawn) | < 500 |  | 

More lines, now with the values ahead:

Row | k obs / 1 [1] [M⁻¹ s⁻¹] | k obs / 1 [2] [M⁻¹ s⁻¹] | k obs / 1 [3] [M⁻¹ s⁻¹] | SMILES
32 | 1500 |  |  | Cc1ccc(S(=O)(=O)NC(CC(C)C)C(=O)NC(Cc2ccccc2)C(=O)COC(=O)c2c(F)cccc2F)cc1 (stereo not drawn)
33 | 9000 |  |  | CC(C)CC(NC(=O)OCc1ccccc1)C(=O)NC(Cc1ccccc1)C(=O)COC(=O)c1c(F)cccc1F (stereo not drawn)
34 | 1000 | 100 | 100 | CC(C)CC(NC(=O)[C@@H](Cc1ccccc1)NC(=O)OCc1ccccc1)C(=O)NC(Cc1ccccc1)C(=O)COC(=O)c1c(F)cccc1F (stereo partly drawn)
35 | 11000 | 250 | 2700 | CC(C)CC(NC(=O)OCc1ccccc1)C(=O)NC(Cc1ccccc1)C(=O)COC(=O)c1c(Cl)cccc1Cl (stereo not drawn)
36 | 14000 |  |  | CC(C)CC(NC(=O)OCc1ccccc1)C(=O)NC(Cc1ccc(O)cc1)C(=O)COC(=O)c1c(Cl)ccc(S(=O)(=O)N2CCOCC2)c1Cl (stereo not drawn)
37 | 28000 | 1600 | 33000 | CC(C)CC(NC(=O)OCc1ccccc1)C(=O)NC(Cc1ccc(O)cc1)C(=O)COC(=O)c1c(Cl)cccc1Cl (stereo not drawn)
38 | < 500 | 50 |  | CC(C)C[C@H](NC(=O)OCc1ccccc1)C(=O)N[C@@H](Cc1ccc(O)cc1)C(=O)CBr
39 | 7000 |  |  | CC(C)CC(NC(=O)OCc1ccccc1)C(=O)NC(Cc1ccc(O)cc1)C(=O)COC(=O)c1c(F)cccc1F (stereo not drawn)
40 | 8000 |  |  | CC(C)CC(NC(=O)OC(C)(C)C)C(=O)NC(Cc1ccccc1)C(=O)COC(=O)c1c(F)cccc1F (stereo not drawn)
41 | 15000 | 800 | 14000 | CC(C)CC(NC(=O)CNC(=O)OCc1ccccc1)C(=O)NC(Cc1ccccc1)C(=O)COC(=O)c1c(F)cccc1F (stereo not drawn)
42 | 26500 | 11000 |  | CC(C)C[C@H](NC(=O)[C@@H]1CCCN1C(=O)OCc1ccccc1)C(=O)N[C@@H](Cc1ccccc1)C(=O)COC(=O)c1c(F)cccc1F
43 | 1400 | 700 | 400 | COC(=O)N[C@H](C)C(=O)NC(CC(C)C)C(=O)NC(Cc1ccccc1)C(=O)COC(=O)c1c(F)cccc1F (stereo partly drawn)
44 | 1500 | 2000 |  | CC(C)CC(NC(=O)OCc1ccccc1)C(=O)NC(Cc1ccc(O)cc1)C(=O)CCl (stereo not drawn) (Cbz-Leu-Tyr-CH2Cl; configuration not given here)
45 | < 500 |  |  | CC(C)CC(C(=O)NC(Cc1ccccc1)C(=O)COC(=O)c1c(F)cccc1F)N(C)C(=O)OCc1ccccc1 (stereo not drawn)
